Tests used:
Mel 202 cells [1] = assay: alamarBlue cell viability assay; type: cell-based; conditions: Mel202, SN38 incubated 24 h, alamarBlue after additional 24 h
Method: Mel 202 cells were cultured in RPMI medium with 10 % fetal bovine serum (FBS), 1 % […]-Penicillin and 1 % L-Glutamine at 37 °C in an incubator. All the procedures were performed inside a laminar flow hood Telstar CV-30/70. Cells were grown in 24 wells plates (30000 cells).
stock solution of Resazurin sodium salt (1 mg/ml) in PBS was diluted 1 % (v/v) in complete RPMI. After incubation 3 h with the cells, the fluorescence was measured in a plate reader Synergy H4 Hybrid reader (BioTEK). Excitation (Ex) 550 nm; Emission (Em) 590 nm.
50 µl OptiMem was mixed with oligonucleotides (14, 15, 16, 17) or DNA mix 1. Then, it was mixed with 1 µl Lipofectamine 2000 in 50 µl optiMEM. The final mixture was incubated for 20 min and then 100 µl was added to cells. The final concentration of 14, 15, 16, 17 or DNA mix 1 was 140 nM. After 24 h the cells were washed 3 times with saline phosphate buffer (PBS) and complete medium was added.
SN38 stock solution was prepared at 100 µM in DMSO. Then different concentrations of SN38 (100 nM, 50 nM, 25 nM) were prepared in complete medium. It was incubated 24 h with the cells, then washed with PBS. After additional 24 h, the alamarBlue assay was carried out. […]
A volume of 100 µ L functionalized AuNPs were added in optiMEM (500 µ L total volume). The cells were incubated for 24 h, washed with PBS and the viability assessed.

Mel 202 cells [2] = assay: Cell cycle analysis by flow cytometry (propidium iodide); type: cell-based; conditions: Mel 202 cells harvested after treatment; SN38 25 nM; free (not on nanoparticles)
Method: The samples were trypsinized (BioWest) and fixed with paraformaldehyde 1 % (v/v). The samples were stained for 3 h with 10 µ g/sample RNAsa A from Thermo Scientific and 20 µ g/sample propidium iodide from Sigma. The cell cycle analysis was performed in a Beckman coulter Cytomics 500 Flow cytometer and acquired data were analyzed with the Multicycle software.
These experiments were performed in cytometry service of Biotechnology National Centre of Spain.

Q: For `CCc1c2c(nc3ccc(O)cc13)-c1cc3c(c(=O)n1C2)COC(=O)[C@]3(O)CC` [SN38, 7-ethyl-10-hidroxycamptothecin], which IC50 (Mel 202 cells [1]) is on record?
A: 100 nM

Q: What about the “effect on the cell cycle” value (Mel 202 cells [2]) of the same compound?
A: significantly increases G2/M

Source: patent EP3626820A1, “ANTICANCER COMPOSITIONS CONTAINING MIRNA MIMICS AND USES THEREOF” (Fundación Imdea Nanociencia, priority 2018, dated 2020)
